PMC10154249, “Unique progerin C-terminal peptide ameliorates Hutchinson–Gilford progeria syndrome phenotype by rescuing BUBR1” (Nature Aging, 2023)

Tests used:
BUBR1–PTBP1 binding = test: CoIP of PTBP1 and BUBR1 in HEK-293T cells; assay type: cell-based; settings: UPCP 18 μM, 48 h
Procedure: (§1) Detailed descriptions of CoIP were described previously[55],[56]. Cells were harvested and washed three times in cold PBS, then lysed in CoIP buffer (25 mM Tris-HCl (pH 7.5), 150 mM KCl, 5 mM EDTA, and 0.5% NP-40) plus protease inhibitor cocktail tablet (Roche). Incubate on ice and shock lysates on the vortex shaker 15 times for 30 s each. Microcentrifuge in 12,000g for 15 min at 4 °C, collect the supernatant, and incubate with 3 μg primary antibodies with gentle shaking overnight at 4 °C, followed by adding 20–40 μl Pure Proteome Protein A/G Mix Magnetic Beads (Millipore, catalog no. […]02) for 3 h. Wash the beads three times with 1 ml CoIP buffer for 8 min each, resuspend in 50 μl 1× loading buffer, and incubate at 100 °C for 8 min. Throw beads away and analyze by immunoblotting.

[1] = test system: BubR1 in Lmna^G609G/G609G mice; test: IHC of BubR1 in tissues of Lmna^G609G/G609G mice; assay type: in vivo, mouse; set-up: key to BubR1 IHC score: intensity score (0-3) × positive-cell score (0-4); range 0-12; settings: 20 mg kg^–1 i.p. every other day
Procedure: For UPCP injection, 14-day-old Lmna^G609G/G609G mice were injected intraperitoneally with either PBS or UPCP (20 mg kg^–1, every other day) and wild-type mice were injected with PBS. All phenotypic analyses were performed after 12 weeks of treatment with UPCP. Bodyweight and lifespan were monitored after UPCP treatment. The survival rate was analyzed by the Kaplan–Meier method. We only included mice that were of sufficient bodyweight at the start of the experiment, typically at least 80% of the average littermate weight of the same sex and genotype. All animals meeting criteria for inclusion were then divided randomly into three groups according to genotype (Lmna^+/+, Lmna^G609G/G609G-Mock and Lmna^G609G/G609G-UPCP).
For histological analyses, mice of the indicated genotypes were perfused with PBS, then with 4% paraformaldehyde (PFA). Whole organs were incubated in 4% PFA at 4 °C for 16 h. All samples were paraffin embedded and sectioning by Servicebio. Subsequently, the tissues were deparaffinized and rehydrated before hematoxylin-eosin (HE) or Masson staining or immunohistochemistry (IHC). HE staining was performed using an HE Kit (Absin, catalog no. abs9217), and Masson staining was performed using Masson’s Trichrome Stain Kit (Absin, catalog no. abs9347) according to the manufacturer’s instructions. The thickness of the layers or the areas of fibrosis in the tissues were calculated using ImageJ software by a blinded investigator. For IHC, the sections were completed by the Servicebio. The images were acquired by a microscope (Leica DMi8) and analyzed with Leica Application Suite X v.3.6.0.24 (Leica). For BubR1, cytoplasmic staining in cells was scored on the intensity of staining and the proportion of positive cells by a blinded investigator. The intensity of the staining was graded as 0 (negative, no color), 1 (low positive, light yellow), 2 (positive, brown yellow) or 3 (high positive, brown), and the number of positive cells was graded as 0 (<5%), 1 (5–25%), 2 (25–50%), 3 (51–75%) or 4 (>75%). The final score was defined as staining number score multiplied by staining color score. For lamin B1, p21 or IL-6, the proportion of positive cells was used to quantify the expression of protein in tissues by a blinded investigator.

[2] = test system: BUBR1 binding to BUB3 and CDC20; test: CoIP of BUBR1 and SAC proteins BUB3 and CDC20 in HEK-293T cells; assay type: cell-based; settings: UPCP 18 μM, nocodazole 200 ng ml^–1
Procedure: as §1

[3] = test system: p53, IL-6 and p21 in HGADFN003 cells; test: Western blot of p53, IL-6 and p21 in HGADFN003 cells; assay type: cell-based, human
Procedure: Western blot was performed as previously described. Cells were lysed in 1× Laemmli sample buffer after washing twice in cold PBS without calcium and magnesium. Protein concentrations were determined using the bicinchoninic acid (BCA) protein assay. Protein lysates were subjected to SDS–PAGE, transferred to 0.45-μm pore size hydrophobic PVDF transfer membrane (Merck Millipore), detected with the appropriate primary antibodies coupled with horseradish peroxidase-conjugated corresponding secondary antibodies, and visualized using enhanced chemiluminescence ECL reagent (GE Healthcare). The Tanon 5500 high-definition low-illumination CCD system (Tanon FLI Capture v.1.02) was used to capture chemiluminescent signals.

HGADFN003 cells = test: γH2AX-53BP1 foci in HGADFN003 cells; assay type: cell-based, human
Procedure: (§2) Immunofluorescence was performed as described previously. Cells were plated on cover slips in 12-well plates, left overnight before the treatment. Cells were fixed in 1% formaldehyde in culture medium for 10 min at 37 °C and permeabilized with 0.2% Triton X-100 in PBS for 10 min at room temperature. Cells were washed twice in PBS and blocked for 1 h with 5% BSA in PBS and then incubated with primary antibodies at 4 °C overnight, washed three times in PBS and incubated with secondary antibodies for 1 h at room temperature. Cell nuclei were counterstained with a 500 nM concentration of 4,6-diamidino-2-phenylindole (DAPI) (Sigma). Images were acquired by a fluorescence microscope (OLYMPUS FV-1000, Carl Zeiss LSM880 or Leica DMi8) and analyzed with software NIS-Elements AR v.5.0.1 (Nikon), FLUOVIEW v.4.2b (OLYMPUS), ZEN v.2.3 SP1 (Carl Zeiss) and Leica Application Suite X v.3.6.0.24 (Leica). Cells were quantified by investigators who were blinded to the identity of the analyzed cell.

PTBP1 in HGADFN003 cells = test: PTBP1 nuclear membrane localization in HGADFN003 cells; assay type: cell-based, human; settings: HGADFN003, UPCP
Procedure: as §2

IMR90 cells = test: Ki67 immunofluorescence of IMR90 cells; assay type: cell-based, human
Procedure: as §2

For “H-YGRKKRRQRRRYNLRSRTVLCGTCGQPADKASASGSGAQSPQNCSIM-OH (cysteines drawn unpaired) [UPCP, unique progerin C-terminal peptide]”, the “binding of BUBR1 to PTBP1” value (BUBR1–PTBP1 binding) was “did not block the binding of BUBR1 to other proteins such as PTBP1”, the “BubR1 IHC score” value ([1]; aorta, No. 1) was 7 and the “BubR1 IHC score” value ([1]; aorta, No. 2) was 8.4. The “BubR1 IHC score” value ([1]; aorta, No. 3) was 12, the “BubR1 IHC score” value ([1]; aorta, No. 4) was 8.6 and the “BubR1 IHC score” value ([1]; aorta, No. 5) was 8. For the same substance, the “BubR1 IHC score” value ([1]; aorta, No. 6) was 6, the “BubR1 IHC score” value ([1]; lung, No. 1) was 1 and the “BubR1 IHC score” value ([1]; lung, No. 2) was 2. For the same substance, the “BubR1 IHC score” value ([1]; lung, No. 3) was 2.4, the “BubR1 IHC score” value ([1]; lung, No. 4) was 1.2 and the “BubR1 IHC score” value ([1]; lung, No. 5) was 1.4. The “BubR1 IHC score” value ([1]; lung, No. 6) was 1.2, the “BubR1 IHC score” value ([1]; skin, No. 1) was 10.4 and the “BubR1 IHC score” value ([1]; skin, No. 2) was 8. The “BubR1 IHC score” value ([1]; skin, No. 3) was 5.6, the “BubR1 IHC score” value ([1]; skin, No. 4) was 7.2 and the “BubR1 IHC score” value ([1]; skin, No. 5) was 12. The “BubR1 IHC score” value ([1]; skin, No. 6) was 12, the “BubR1 expression” value ([1]; skin, esophagus, lung and spleen) was “increased the expression of BubR1” and the “BubR1 IHC score” value ([1]; spleen, No. 1) was 7.6. For the same substance, the “BubR1 IHC score” value ([1]; spleen, No. 2) was 6.8, the “BubR1 IHC score” value ([1]; spleen, No. 3) was 6 and the “BubR1 IHC score” value ([1]; spleen, No. 4) was 7.8. The “BubR1 IHC score” value ([1]; spleen, No. 5) was 7.6, the “BubR1 IHC score” value ([1]; spleen, No. 6) was 7.2 and the “binding of BUBR1 to SAC proteins (BUB3 or CDC20)” value [2] was “did not block the binding of BUBR1 to other proteins such as PTBP1 or other SAC proteins (BUB3 or CDC20)”. For the same substance, the “level of p53, IL-6 and p21” value [3] was “decreased level of p53, IL-6 and p21”, the “γH2AX and 53BP1 positive cells (/Mock)” value (HGADFN003 cells; HGADFN003, relative to Mock = 100, replicate 1) was 45% and the “γH2AX and 53BP1 positive cells (/Mock)” value (HGADFN003 cells; HGADFN003, relative to Mock = 100, replicate 2) was 55%. For the same substance, the “γH2AX and 53BP1 positive cells (/Mock)” value (HGADFN003 cells; HGADFN003, relative to Mock = 100, replicate 3) was 50%, the “γH2AX-53BP1 foci” value (HGADFN003 cells; HGPS fibroblasts) was “lower level of γH2AX-53BP1 foci” and the “PTBP1 nuclear membrane location cells” value (PTBP1 in HGADFN003 cells; replicate 1) was 45%. For the same substance, the “PTBP1 nuclear membrane location cells” value (PTBP1 in HGADFN003 cells; replicate 2) was 39%, the “PTBP1 nuclear membrane location cells” value (PTBP1 in HGADFN003 cells; replicate 3) was 35% and the Ki67 positive cells (IMR90 cells; IMR90, replicate 1) was 73%. The Ki67 positive cells (IMR90 cells; IMR90, replicate 2) was 84% and the Ki67 positive cells (IMR90 cells; IMR90, replicate 3) was 87%.
